In this assay the test system is L1210 leukemia ip in BDF1 mice, survival T/C. Kind of assay: NCI In Vivo Anticancer Drug Screen. Data for tumor model L1210 Leukemia (intraperitoneal) in B6D2F1 (BDF1) mice. The conditions noted are these: higher = longer survival. The method in brief: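 Ratio derived from survival: compound-dosed mice over vehicle-dosed mice, all bearing a transplantable tumor.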

The mark [1] stands for this setting: endpoint: mean survival time, dose: 100.0 mg/kg/injection, schedule: Q01DX001 (ip), vehicle: saline.
[2] abbreviates: endpoint: mean survival time, dose: 200.0 mg/kg/injection, schedule: Q01DX001 (ip), vehicle: saline.
[3] abbreviates: endpoint: mean survival time, dose: 400.0 mg/kg/injection, schedule: Q01DX001 (ip), vehicle: saline.
The mark [4] stands for this setting: endpoint: mean survival time, dose: 100.0 mg/kg/injection, schedule: Q04DX003 (ip), vehicle: carboxymethylcellulose (CMC).
Setting [5] is: endpoint: mean survival time, dose: 200.0 mg/kg/injection, schedule: Q04DX003 (ip), vehicle: carboxymethylcellulose (CMC).
[6] abbreviates: endpoint: mean survival time, dose: 100.0 mg/kg/injection, schedule: Q04DX003 (ip), vehicle: saline.
Setting [7] is: endpoint: mean survival time, dose: 100.0 mg/kg/injection, schedule: Q01DX009 (ip), vehicle: saline.
Where [8] appears, read: endpoint: mean survival time, dose: 200.0 mg/kg/injection, schedule: Q01DX009 (ip), vehicle: saline.
The mark [9] stands for this setting: endpoint: mean survival time, dose: 400.0 mg/kg/injection, schedule: Q01DX009 (ip), vehicle: saline.
[10] abbreviates: endpoint: mean survival time, dose: 100.0 mg/kg/injection, schedule: Q04DX003 (ip), vehicle: saline with Tween-80.
Where [11] appears, read: endpoint: mean survival time, dose: 200.0 mg/kg/injection, schedule: Q04DX003 (ip), vehicle: saline with Tween-80.
[12] abbreviates: endpoint: mean survival time, dose: 400.0 mg/kg/injection, schedule: Q04DX003 (ip), vehicle: saline with Tween-80.

Toxic doses and inconclusive results are not listed.

For `CCOC(=O)c1cc([N+](=O)[O-])ccc1N`, the T/C under setting [1] is 100 % of control, the T/C under setting [2] was 94 % of control and the T/C under setting [3] was 94 % of control.
Regarding `N#C/C(=C(/Cc1ccc(F)cc1)NP(=O)(c1ccccc1)c1ccccc1)c1ccc(F)cc1`, the T/C runs as follows: (endpoint: mean survival time, dose: 100.0 mg/kg/injection, schedule: Q01DX001 (ip), vehicle: steriod suspending solution) 101 % of control; (endpoint: mean survival time, dose: 200.0 mg/kg/injection, schedule: Q01DX001 (ip), vehicle: steriod suspending solution) 90 % of control.
With `CN(C)NP(=O)(c1ccccc1)c1ccccc1`, the T/C under setting [1] was 98 % of control, the T/C under setting [2] was 95 % of control and the T/C under setting [3] was 97 % of control.
Take `Nc1ncnc(N)c1[N+](=O)[O-]`: the T/C (endpoint: mean survival time, dose: 125.0 mg/kg/injection, schedule: Q01DX Z (ip), vehicle: methylcellulose (MC)) was 88 % of control.
Regarding `CC(=O)OC1C2OC3C=C(C)CCC3(CO)C(C)(C1OC(C)=O)C21CO1` (centres undefined), the T/C is 107 % of control (endpoint: mean survival time, dose: 0.8 mg/kg/injection, schedule: Q01DX009 (ip), vehicle: other); 111 % of control (endpoint: mean survival time, dose: 1.6 mg/kg/injection, schedule: Q01DX009 (ip), vehicle: other); 95 % of control (endpoint: mean survival time, dose: 6.4 mg/kg/injection, schedule: Q01DX009 (ip), vehicle: other).
As to `O=C(CCl)N1CCC(CC2(c3cc4ccccc4[nH]3)OCCO2)CC1`, the T/C runs as follows: (endpoint: mean survival time, dose: 100.0 mg/kg/injection, schedule: Q04DX002 (ip), vehicle: other) 97 % of control; (endpoint: mean survival time, dose: 200.0 mg/kg/injection, schedule: Q04DX002 (ip), vehicle: other) 90 % of control; (endpoint: mean survival time, dose: 400.0 mg/kg/injection, schedule: Q04DX002 (ip), vehicle: other) 94 % of control.
In the case of `O=C1C2C3CCC(O3)C2C(=O)N1Cc1ccccc1CBr` (centres undefined), the T/C by setting is: under setting [4], 95 % of control; under setting [5], 98 % of control.
Turning to `O=c1cc[nH]c2ccccc12`, the T/C reads like this: (endpoint: mean survival time, dose: 100.0 mg/kg/injection, schedule: Q01DX001 (ip), vehicle: saline with Tween-80) 96 % of control; (endpoint: mean survival time, dose: 200.0 mg/kg/injection, schedule: Q01DX001 (ip), vehicle: saline with Tween-80) 97 % of control; (endpoint: mean survival time, dose: 400.0 mg/kg/injection, schedule: Q01DX001 (ip), vehicle: saline with Tween-80) 103 % of control.
Turning to `Cc1ccncc1C1CCCN1C` (centres undefined), the T/C is 94 % of control (endpoint: mean survival time, dose: 25.0 mg/kg/injection, schedule: Q04DX003 (ip), vehicle: saline); 102 % of control (endpoint: mean survival time, dose: 50.0 mg/kg/injection, schedule: Q04DX003 (ip), vehicle: saline); 94 % of control under setting [6].
As to `CCOC(=O)NC(NC(=O)OCC)NC(=O)OCC`, the T/C under setting [7] is 102 % of control, the T/C under setting [8] was 104 % of control and the T/C under setting [9] is 104 % of control.
As to `CCCCCCSc1n[nH]c(=O)[nH]c1=O`, the T/C is 97 % of control under setting [1], 95 % of control under setting [2] and 108 % of control under setting [3].
Regarding `CN(Cc1cnc2nc(N)nc(N)c2n1)c1ccc(C(=O)NC(CCC(=O)O)C(=O)O)cc1F` (centres undefined), the T/C by setting is: (endpoint: median survival time, dose: 1.25 mg/kg/injection, schedule: Q01DX009 (ip), vehicle: other) 150 % of control; (endpoint: median survival time, dose: 2.5 mg/kg/injection, schedule: Q01DX009 (ip), vehicle: other) 161 % of control.
As for `CN1OC(C#N)(C#N)C(C#N)(C#N)C1c1ccccc1` (centres undefined), the T/C runs as follows: under setting [7], 103 % of control; under setting [6], 101 % of control; under setting [8], 106 % of control; (endpoint: mean survival time, dose: 200.0 mg/kg/injection, schedule: Q04DX003 (ip), vehicle: saline) 89 % of control; under setting [9], 101 % of control; (endpoint: mean survival time, dose: 400.0 mg/kg/injection, schedule: Q04DX003 (ip), vehicle: saline) 109 % of control.
With `CC1(CCOCc2ccccc2)NC(=O)N(CCC#N)C1=O` (centres undefined), the T/C by setting is: (endpoint: mean survival time, dose: 50.0 mg/kg/injection, schedule: Q01DX001 (ip), vehicle: carboxymethylcellulose (CMC)) 102 % of control; (endpoint: mean survival time, dose: 100.0 mg/kg/injection, schedule: Q01DX001 (ip), vehicle: carboxymethylcellulose (CMC)) 94 % of control; (endpoint: mean survival time, dose: 200.0 mg/kg/injection, schedule: Q01DX001 (ip), vehicle: carboxymethylcellulose (CMC)) 94 % of control; (endpoint: mean survival time, dose: 400.0 mg/kg/injection, schedule: Q01DX001 (ip), vehicle: carboxymethylcellulose (CMC)) 91 % of control.
With `COc1cc(Br)c(CCBr)cc1OC`, the T/C by setting is: (endpoint: mean survival time, dose: 25.0 mg/kg/injection, schedule: Q01DX009 (ip), vehicle: Klucel (hydroxypropylcellulose) (HPC)) 98 % of control; (endpoint: mean survival time, dose: 50.0 mg/kg/injection, schedule: Q01DX009 (ip), vehicle: Klucel (hydroxypropylcellulose) (HPC)) 94 % of control; (endpoint: mean survival time, dose: 100.0 mg/kg/injection, schedule: Q01DX009 (ip), vehicle: Klucel (hydroxypropylcellulose) (HPC)) 100 % of control; under setting [10], 96 % of control; under setting [11], 94 % of control; under setting [12], 104 % of control.
On to `CC(C)NC(=O)Nc1cccc(O)c1`, for which the T/C runs as follows: under setting [10], 96 % of control; under setting [11], 89 % of control; under setting [12], 89 % of control.
For the compound `C1=NC(c2ccccc2)=CN(C2CCCCC2)C1(c1ccccc1)C1CCCCC1` (centres undefined), the T/C is 99 % of control (endpoint: mean survival time, dose: 50.0 mg/kg/injection, schedule: Q04DX002 (ip), vehicle: saline with Tween-80); 92 % of control (endpoint: mean survival time, dose: 100.0 mg/kg/injection, schedule: Q04DX002 (ip), vehicle: Klucel (hydroxypropylcellulose) (HPC)); 105 % of control (endpoint: mean survival time, dose: 100.0 mg/kg/injection, schedule: Q04DX002 (ip), vehicle: saline with Tween-80); 98 % of control (endpoint: mean survival time, dose: 200.0 mg/kg/injection, schedule: Q04DX002 (ip), vehicle: Klucel (hydroxypropylcellulose) (HPC)); 96 % of control (endpoint: mean survival time, dose: 200.0 mg/kg/injection, schedule: Q04DX002 (ip), vehicle: saline with Tween-80); 98 % of control (endpoint: mean survival time, dose: 400.0 mg/kg/injection, schedule: Q04DX002 (ip), vehicle: Klucel (hydroxypropylcellulose) (HPC)).
For `O=C1C2C3CCC(O3)C2C(=O)N1CCO` (centres undefined), the T/C is, setting by setting: (endpoint: mean survival time, dose: 100.0 mg/kg/injection, schedule: Q04DX002 (ip), vehicle: saline) 109 % of control; (endpoint: mean survival time, dose: 200.0 mg/kg/injection, schedule: Q04DX002 (ip), vehicle: saline) 106 % of control; (endpoint: mean survival time, dose: 400.0 mg/kg/injection, schedule: Q04DX002 (ip), vehicle: saline) 98 % of control.
As to `O=CC(OC(=O)c1ccccc1)C(OC(=O)c1ccccc1)C(CO)OC(=O)c1ccccc1` (centres undefined), the T/C was 106 % of control (endpoint: mean survival time, dose: 100.0 mg/kg/injection, schedule: Q01DX001 (ip), vehicle: Klucel (hydroxypropylcellulose) (HPC)); 95 % of control (endpoint: mean survival time, dose: 200.0 mg/kg/injection, schedule: Q01DX001 (ip), vehicle: Klucel (hydroxypropylcellulose) (HPC)); 98 % of control (endpoint: mean survival time, dose: 400.0 mg/kg/injection, schedule: Q01DX001 (ip), vehicle: Klucel (hydroxypropylcellulose) (HPC)).
On to `COc1ccc(N(C=O)N=O)cc1`, for which the T/C runs as follows: (endpoint: mean survival time, dose: 75.0 mg/kg/injection, schedule: Q01DX001 (ip), vehicle: other) 90 % of control; (endpoint: mean survival time, dose: 150.0 mg/kg/injection, schedule: Q01DX001 (ip), vehicle: other) 93 % of control.
With `CCOC(=N)CCCl`, the T/C was 94 % of control (endpoint: mean survival time, dose: 100.0 mg/kg/injection, schedule: Q01DX009 (ip), vehicle: saline with Tween-80); 102 % of control (endpoint: mean survival time, dose: 200.0 mg/kg/injection, schedule: Q01DX009 (ip), vehicle: saline with Tween-80); 96 % of control (endpoint: mean survival time, dose: 400.0 mg/kg/injection, schedule: Q01DX009 (ip), vehicle: saline with Tween-80).
Consider `COC1CCCC(/C(=C\Br)c2ccccc2)C1` (centres undefined), for which the T/C runs as follows: under setting [1], 106 % of control; under setting [2], 106 % of control; under setting [3], 115 % of control.
For `CCCCCCCCS(=O)(=O)CCO`, the T/C by setting is: (endpoint: mean survival time, dose: 100.0 mg/kg/injection, schedule: Q01DX009 (ip), vehicle: carboxymethylcellulose (CMC)) 93 % of control; under setting [4], 106 % of control; (endpoint: mean survival time, dose: 200.0 mg/kg/injection, schedule: Q01DX009 (ip), vehicle: carboxymethylcellulose (CMC)) 90 % of control; under setting [5], 101 % of control; (endpoint: mean survival time, dose: 400.0 mg/kg/injection, schedule: Q01DX009 (ip), vehicle: carboxymethylcellulose (CMC)) 95 % of control; (endpoint: mean survival time, dose: 400.0 mg/kg/injection, schedule: Q04DX003 (ip), vehicle: carboxymethylcellulose (CMC)) 106 % of control.
Turning to `O=C1N/C(=N/OCc2ccc([N+](=O)[O-])cc2)CC(NOCc2ccc([N+](=O)[O-])cc2)N1` (centres undefined), the T/C runs as follows: under setting [10], 91 % of control; under setting [11], 101 % of control; under setting [12], 89 % of control.

The values are drawn from PubChem BioAssay AID248 (DTP/NCI, 2004).
